Read-outs that look alike come from different tables or passages of the source.
Assays:
Format in all cases: biochemical
kinases [1] = biological target: kinases (Homo sapiens, UniProt Q9NRM7); settings: LATS2 FRET-Lantha SP; Test Conc(μM) 1
kinases [2] = biological target: kinases (Homo sapiens, UniProt P51955); settings: NEK2 FRET-Z-Lyte SP; Test Conc(μM):ATP Conc(μM) 1:150
kinases [3] = biological target: kinases (Homo sapiens, UniProt P36896); settings: ACVR1B (ALK4) *Mn* Z-Lyte SP; Test Conc(μM):ATP Conc(μM) 1:5
kinases [4] = biological target: kinases (Homo sapiens, UniProt P24723); settings: PRKCH (PKC eta) Z-Lyte SP; Test Conc(μM):ATP Conc(μM) 1:25
kinases [5] = biological target: kinases (Homo sapiens, UniProt P41279); settings: MAP3K8 (COT) Cascade Z-Lyte SP; Test Conc(μM):ATP Conc(μM) 1:100
kinases [6] = biological target: kinases (Homo sapiens, UniProt Q9Y6E0); settings: STK24 (MST3) FRET-Z-Lyte SP; ATP Conc(μM):Test Conc(μM) 1:50
kinases [7] = biological target: kinases (Homo sapiens, UniProt Q7KZI7); settings: MARK2 FRET-Z-Lyte SP; Test Conc(μM):ATP Conc(μM) 1:10
kinases [8] = biological target: kinases (Homo sapiens, UniProt O43781); settings: DYRK3 FRET-Z-Lyte SP; ATP Conc(μM):Test Conc(μM) 1:5
kinases [9] = biological target: kinases (Homo sapiens, UniProt Q9UPZ9); settings: ICK FRET-Lantha SP; Test Conc(μM) 1
kinases [10] = biological target: kinases (Homo sapiens, UniProt P48426); settings: PIP4K2A FRET-Adapta SP; Test Conc(μM):ATP Conc(μM) 1:10
kinases [11] = biological target: kinases (Homo sapiens, UniProt P11309); settings: PIM1 FRET-Z-Lyte SP; Test Conc(μM):ATP Conc(μM) 1:400
kinases [12] = biological target: kinases (Homo sapiens, UniProt P22607); settings: FGFR3 *Mn* FRET-Z-Lyte SP; Test Conc(μM):ATP Conc(μM) 1:75
kinases [13] = biological target: kinases (Homo sapiens, UniProt O75582); settings: RPS6KA5 (MSK1) FRET-Z-Lyte SP; ATP Conc(μM):Test Conc(μM) 1:50
kinases [14] = biological target: kinases (Homo sapiens, UniProt Q13554); settings: CAMK2B FRET-Z-Lyte SP; Test Conc(μM):ATP Conc(μM) 1:75
kinases [15] = biological target: kinases (Homo sapiens, UniProt P50750)
kinases [16] = biological target: kinases (Homo sapiens, UniProt Q9HBY8); settings: SGK2 FRET-Z-Lyte SP; Test Conc(μM):ATP Conc(μM) 1:50
kinases [17] = biological target: kinases (Homo sapiens, UniProt Q9HBH9); settings: MKNK2 (MNK2) FRET-Lantha SP; Test Conc(μM) 1
kinases [18] = biological target: kinases (Homo sapiens, UniProt Q9BYP7); settings: WNK3 FRET-Lantha SP; Test Conc(μM) 1
kinases [19] = biological target: kinases (Homo sapiens, UniProt P07332); settings: FES (FPS) FRET-Z-Lyte SP; Test Conc(μM):ATP Conc(μM) 1:25
kinases [20] = biological target: kinases (Homo sapiens, UniProt Q8TDC3); settings: BRSK1 (SAD1) FRET-Z-Lyte SP; Test Conc(μM):ATP Conc(μM) 1:25
kinases [21] = biological target: kinases (Homo sapiens, UniProt Q9BTU6); settings: PI4K2A *Mn* FRET-Adapta SP; Test Conc(μM):ATP Conc(μM) 1:10
kinases [22] = biological target: kinases (Homo sapiens, UniProt P06241)
kinases [23] = biological target: kinases (Homo sapiens, UniProt O43353); settings: RIPK2 FRET-Lantha SP; Test Conc(μM) 1
kinases [24] = biological target: kinases (Homo sapiens, UniProt O75716); settings: STK16 (PKL12) FRET-Lantha SP; Test Conc(μM) 1
kinases [25] = biological target: kinases (Homo sapiens, UniProt Q13555); settings: CAMK2G FRET-Lantha SP; Test Conc(μM) 1
kinases [26] = biological target: kinases (Homo sapiens, UniProt Q9P289); settings: MST4 FRET-Z-Lyte SP; Test Conc(μM):ATP Conc(μM) 1:25
kinases [27] = biological target: kinases (Homo sapiens, UniProt O75116); settings: ROCK2 FRET-Z-Lyte SP; Test Conc(μM):ATP Conc(μM) 1:50
kinases [28] = biological target: kinases (Homo sapiens, UniProt Q16584); settings: MAP3K11 (MLK3) FRET-Lantha SP; Test Conc(μM) 1
[29] = CDK9 (Inactive) FRET-Lantha SP, Test Conc(μM) 1
[30] = CDK9/cyclin K FRET-Lantha SP, Test Conc(μM) 1
[31] = CDK9/cyclin T1 FRET-Adapta SP, Test Conc(μM):ATP Conc(μM) 1:25
[32] = FYN A FRET-Lantha SP, Test Conc(μM) 1
[33] = FYN FRET-Z-Lyte SP, Test Conc(μM):ATP Conc(μM) 1:75

Sequence of kinases (Homo sapiens, UniProt P50750) (P50750 whole entry): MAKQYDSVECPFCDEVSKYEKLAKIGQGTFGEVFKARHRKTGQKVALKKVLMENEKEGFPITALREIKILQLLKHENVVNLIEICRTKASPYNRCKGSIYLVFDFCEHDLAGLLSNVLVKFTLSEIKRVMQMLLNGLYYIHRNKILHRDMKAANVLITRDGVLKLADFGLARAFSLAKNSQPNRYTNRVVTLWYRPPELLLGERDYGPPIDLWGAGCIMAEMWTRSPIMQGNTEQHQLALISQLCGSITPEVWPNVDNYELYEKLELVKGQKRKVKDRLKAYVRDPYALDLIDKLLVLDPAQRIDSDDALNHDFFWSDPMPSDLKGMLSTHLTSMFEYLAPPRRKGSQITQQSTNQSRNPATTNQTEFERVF
Sequence of kinases (Homo sapiens, UniProt P06241) (P06241 whole entry): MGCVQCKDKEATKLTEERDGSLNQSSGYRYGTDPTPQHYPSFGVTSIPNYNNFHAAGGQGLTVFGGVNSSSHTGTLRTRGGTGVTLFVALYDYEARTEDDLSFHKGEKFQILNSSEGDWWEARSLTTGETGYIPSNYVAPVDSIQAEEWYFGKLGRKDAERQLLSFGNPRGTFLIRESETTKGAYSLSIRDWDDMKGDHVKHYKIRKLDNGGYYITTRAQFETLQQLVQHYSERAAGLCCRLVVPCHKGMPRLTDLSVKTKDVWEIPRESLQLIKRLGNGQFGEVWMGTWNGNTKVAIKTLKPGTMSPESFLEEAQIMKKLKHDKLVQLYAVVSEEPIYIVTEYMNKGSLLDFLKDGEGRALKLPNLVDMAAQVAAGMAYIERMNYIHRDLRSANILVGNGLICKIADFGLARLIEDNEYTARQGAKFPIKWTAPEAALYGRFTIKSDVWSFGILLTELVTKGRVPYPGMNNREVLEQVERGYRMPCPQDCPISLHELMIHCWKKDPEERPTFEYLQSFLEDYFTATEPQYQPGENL
Sequence of kinases (Homo sapiens, UniProt Q9BTU6) (Q9BTU6 whole entry): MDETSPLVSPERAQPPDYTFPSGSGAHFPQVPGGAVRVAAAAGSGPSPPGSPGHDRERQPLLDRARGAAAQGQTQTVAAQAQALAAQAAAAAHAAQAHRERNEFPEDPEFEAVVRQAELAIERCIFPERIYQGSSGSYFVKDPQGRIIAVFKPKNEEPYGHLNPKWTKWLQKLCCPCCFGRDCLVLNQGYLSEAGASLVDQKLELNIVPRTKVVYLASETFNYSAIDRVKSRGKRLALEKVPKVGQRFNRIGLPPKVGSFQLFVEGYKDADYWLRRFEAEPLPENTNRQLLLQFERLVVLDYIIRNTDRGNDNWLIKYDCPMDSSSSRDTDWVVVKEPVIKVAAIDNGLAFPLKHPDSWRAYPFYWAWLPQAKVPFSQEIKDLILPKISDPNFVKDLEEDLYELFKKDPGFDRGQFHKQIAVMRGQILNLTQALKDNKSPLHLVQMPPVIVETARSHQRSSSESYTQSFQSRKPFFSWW
Sequence of kinases (Homo sapiens, UniProt Q9BYP7) (Q9BYP7 whole entry): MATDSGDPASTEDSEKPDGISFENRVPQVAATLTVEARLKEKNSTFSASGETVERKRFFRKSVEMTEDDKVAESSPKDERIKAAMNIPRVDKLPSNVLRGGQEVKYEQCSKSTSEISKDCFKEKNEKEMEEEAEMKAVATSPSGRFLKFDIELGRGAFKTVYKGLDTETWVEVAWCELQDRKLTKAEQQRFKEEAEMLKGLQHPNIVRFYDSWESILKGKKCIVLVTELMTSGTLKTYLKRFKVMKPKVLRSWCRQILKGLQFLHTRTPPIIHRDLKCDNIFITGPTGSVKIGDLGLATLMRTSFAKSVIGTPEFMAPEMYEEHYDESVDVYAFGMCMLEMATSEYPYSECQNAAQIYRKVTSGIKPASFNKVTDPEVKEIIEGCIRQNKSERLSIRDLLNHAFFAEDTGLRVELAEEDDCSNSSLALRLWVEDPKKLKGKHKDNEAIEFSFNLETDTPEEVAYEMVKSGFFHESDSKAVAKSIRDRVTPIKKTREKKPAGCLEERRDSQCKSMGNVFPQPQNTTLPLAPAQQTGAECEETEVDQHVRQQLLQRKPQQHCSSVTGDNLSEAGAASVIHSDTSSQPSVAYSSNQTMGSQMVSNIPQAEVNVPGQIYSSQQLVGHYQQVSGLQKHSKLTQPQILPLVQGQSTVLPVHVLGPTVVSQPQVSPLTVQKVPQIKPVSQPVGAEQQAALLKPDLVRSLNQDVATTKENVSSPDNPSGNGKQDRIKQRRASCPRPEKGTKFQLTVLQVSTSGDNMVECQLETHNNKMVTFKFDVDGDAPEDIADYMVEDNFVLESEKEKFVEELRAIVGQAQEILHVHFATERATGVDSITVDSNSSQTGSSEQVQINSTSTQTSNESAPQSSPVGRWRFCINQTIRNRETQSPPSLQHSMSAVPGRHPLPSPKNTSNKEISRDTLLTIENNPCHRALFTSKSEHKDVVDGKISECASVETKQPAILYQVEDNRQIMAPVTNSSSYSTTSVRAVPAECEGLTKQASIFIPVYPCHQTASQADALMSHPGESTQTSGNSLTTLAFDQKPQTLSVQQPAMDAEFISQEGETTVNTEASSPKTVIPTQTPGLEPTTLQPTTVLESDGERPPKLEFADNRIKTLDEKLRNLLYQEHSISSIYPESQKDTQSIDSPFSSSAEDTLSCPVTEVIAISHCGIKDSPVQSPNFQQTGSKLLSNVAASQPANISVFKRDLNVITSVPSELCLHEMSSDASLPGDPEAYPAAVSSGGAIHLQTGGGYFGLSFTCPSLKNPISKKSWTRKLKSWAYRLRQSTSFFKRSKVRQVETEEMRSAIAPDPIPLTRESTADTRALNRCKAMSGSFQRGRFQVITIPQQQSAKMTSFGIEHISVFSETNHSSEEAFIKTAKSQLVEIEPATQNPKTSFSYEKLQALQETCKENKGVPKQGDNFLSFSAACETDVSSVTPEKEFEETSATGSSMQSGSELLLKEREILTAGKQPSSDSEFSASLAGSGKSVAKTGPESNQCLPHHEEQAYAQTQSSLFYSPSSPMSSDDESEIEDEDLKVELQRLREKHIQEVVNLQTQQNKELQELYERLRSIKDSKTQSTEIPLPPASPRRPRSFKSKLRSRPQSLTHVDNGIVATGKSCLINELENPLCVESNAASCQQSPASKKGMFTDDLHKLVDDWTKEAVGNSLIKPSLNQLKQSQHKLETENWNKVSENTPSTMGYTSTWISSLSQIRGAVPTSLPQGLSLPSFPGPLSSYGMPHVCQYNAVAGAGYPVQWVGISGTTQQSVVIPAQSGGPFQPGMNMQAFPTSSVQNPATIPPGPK
Sequence of kinases (Homo sapiens, UniProt Q13555) (Q13555 whole entry): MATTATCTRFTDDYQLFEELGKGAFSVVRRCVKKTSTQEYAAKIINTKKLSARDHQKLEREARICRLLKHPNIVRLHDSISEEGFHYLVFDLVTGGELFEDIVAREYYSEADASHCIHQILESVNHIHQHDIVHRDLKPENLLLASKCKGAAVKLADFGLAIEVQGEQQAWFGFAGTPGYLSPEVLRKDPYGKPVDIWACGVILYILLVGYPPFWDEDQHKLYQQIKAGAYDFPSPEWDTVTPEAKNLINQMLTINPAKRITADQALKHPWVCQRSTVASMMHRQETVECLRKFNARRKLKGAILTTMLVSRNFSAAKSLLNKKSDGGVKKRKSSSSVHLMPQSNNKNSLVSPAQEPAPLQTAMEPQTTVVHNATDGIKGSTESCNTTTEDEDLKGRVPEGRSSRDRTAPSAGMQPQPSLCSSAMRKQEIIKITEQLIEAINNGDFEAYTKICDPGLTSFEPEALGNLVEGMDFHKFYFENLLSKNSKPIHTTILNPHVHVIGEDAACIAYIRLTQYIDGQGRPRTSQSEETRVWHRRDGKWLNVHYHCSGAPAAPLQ
Sequence of kinases (Homo sapiens, UniProt Q9NRM7) (Q9NRM7 whole entry): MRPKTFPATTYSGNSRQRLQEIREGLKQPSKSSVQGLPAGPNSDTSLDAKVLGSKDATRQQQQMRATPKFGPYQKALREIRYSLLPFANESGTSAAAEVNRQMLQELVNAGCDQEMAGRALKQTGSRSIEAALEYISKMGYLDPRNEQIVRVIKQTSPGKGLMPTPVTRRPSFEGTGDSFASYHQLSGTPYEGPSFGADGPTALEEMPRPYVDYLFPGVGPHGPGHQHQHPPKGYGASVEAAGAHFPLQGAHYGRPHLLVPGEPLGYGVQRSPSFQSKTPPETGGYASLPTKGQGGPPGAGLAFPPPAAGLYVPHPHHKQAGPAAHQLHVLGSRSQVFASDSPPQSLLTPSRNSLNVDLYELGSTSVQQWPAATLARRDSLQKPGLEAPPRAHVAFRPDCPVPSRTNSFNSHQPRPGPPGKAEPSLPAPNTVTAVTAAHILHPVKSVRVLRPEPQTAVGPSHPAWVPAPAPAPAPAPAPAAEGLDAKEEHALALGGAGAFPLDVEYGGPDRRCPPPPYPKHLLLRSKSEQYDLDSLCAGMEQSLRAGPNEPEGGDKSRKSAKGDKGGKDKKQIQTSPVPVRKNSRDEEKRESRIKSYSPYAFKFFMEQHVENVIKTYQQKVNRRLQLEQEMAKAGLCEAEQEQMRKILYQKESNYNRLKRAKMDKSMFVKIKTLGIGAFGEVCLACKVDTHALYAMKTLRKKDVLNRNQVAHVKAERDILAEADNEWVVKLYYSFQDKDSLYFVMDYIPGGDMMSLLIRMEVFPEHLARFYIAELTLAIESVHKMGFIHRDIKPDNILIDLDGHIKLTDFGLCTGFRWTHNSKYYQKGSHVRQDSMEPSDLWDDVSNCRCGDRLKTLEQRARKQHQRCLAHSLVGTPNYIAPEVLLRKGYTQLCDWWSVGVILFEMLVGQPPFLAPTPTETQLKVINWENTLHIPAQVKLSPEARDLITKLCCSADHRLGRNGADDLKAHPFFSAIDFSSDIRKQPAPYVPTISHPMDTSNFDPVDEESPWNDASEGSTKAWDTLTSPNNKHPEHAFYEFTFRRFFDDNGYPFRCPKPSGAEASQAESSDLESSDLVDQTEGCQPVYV

Structure (SMILES): Cc1ccc(NC(=O)c2ccnc(N3CCOCC3)c2)cc1Nc1ccnc(N2CC(C)OC(C)C2)n1 (centres unmarked) [compound 3]
- Mean Inhib (%) (kinases [1]): 0.5%
- Mean Inhib (%) (kinases [2]): −0.8%
- Mean Inhib (%) (kinases [3]): 6.8%
- Mean Inhib (%) (kinases [4]): 9.3%
- Mean Inhib (%) (kinases [5]): 6.1%
- Mean Inhib (%) (kinases [6]): −7.6%
- Mean Inhib (%) (kinases [7]): 7.4%
- Mean Inhib (%) (kinases [8]): 0.4%
- Mean Inhib (%) (kinases [9]): 0.3%
- Mean Inhib (%) (kinases [10]): 2.2%
- Mean Inhib (%) (kinases [11]): 7.8%
- Mean Inhib (%) (kinases [12]): −2.6%
- Mean Inhib (%) (kinases [13]): 1.6%
- Mean Inhib (%) (kinases [14]): 4.5%
- Mean Inhib (%) (kinases [15]; [29]): 6.2%
- Mean Inhib (%) (kinases [15]; [30]): −1.9%
- Mean Inhib (%) (kinases [15]; [31]): 17.2%
- Mean Inhib (%) (kinases [16]): 1.2%
- Mean Inhib (%) (kinases [17]): 2.2%
- Mean Inhib (%) (kinases [18]): 5.3%
- Mean Inhib (%) (kinases [19]): 10.0%
- Mean Inhib (%) (kinases [20]): 2.2%
- Mean Inhib (%) (kinases [21]): −2.4%
- Mean Inhib (%) (kinases [22]; [32]): 4.8%
- Mean Inhib (%) (kinases [22]; [33]): 5.1%
- Mean Inhib (%) (kinases [23]): 13.0%
- Mean Inhib (%) (kinases [24]): −1.7%
- Mean Inhib (%) (kinases [25]): −1.7%
- Mean Inhib (%) (kinases [26]): 16.7%
- Mean Inhib (%) (kinases [27]): −2.1%
- Mean Inhib (%) (kinases [28]): −0.7%

Structure (SMILES): Cc1cc(Oc2ccnc(Nc3ccc(S(N)(=O)=O)cc3)c2)c(-c2ccccn2)nc1C [compound 65]
- Mean Inhib (%) (kinases [1]): 4.9%
- Mean Inhib (%) (kinases [2]): 12.8%
- Mean Inhib (%) (kinases [3]): 97.8%
- Mean Inhib (%) (kinases [4]): 0.8%
- Mean Inhib (%) (kinases [5]): 21.2%
- Mean Inhib (%) (kinases [6]): 4.9%
- Mean Inhib (%) (kinases [7]): 3.8%
- Mean Inhib (%) (kinases [8]): −1.2%
- Mean Inhib (%) (kinases [9]): 6.0%
- Mean Inhib (%) (kinases [10]): −8.6%
- Mean Inhib (%) (kinases [11]): 3.8%
- Mean Inhib (%) (kinases [12]): 7.7%
- Mean Inhib (%) (kinases [13]): 10.0%
- Mean Inhib (%) (kinases [14]): 11.4%
- Mean Inhib (%) (kinases [15]; [29]): 6.9%
- Mean Inhib (%) (kinases [15]; [30]): 2.6%
- Mean Inhib (%) (kinases [15]; [31]): 6.2%
- Mean Inhib (%) (kinases [16]): −1.3%
- Mean Inhib (%) (kinases [17]): 2.7%
- Mean Inhib (%) (kinases [18]): −2.5%
- Mean Inhib (%) (kinases [19]): 6.3%
- Mean Inhib (%) (kinases [20]): 4.7%
- Mean Inhib (%) (kinases [21]): −2.9%
- Mean Inhib (%) (kinases [22]; [32]): 27.5%
- Mean Inhib (%) (kinases [22]; [33]): 43.1%
- Mean Inhib (%) (kinases [23]): 64.0%
- Mean Inhib (%) (kinases [24]): 3.4%
- Mean Inhib (%) (kinases [25]): 1.3%
- Mean Inhib (%) (kinases [26]): −9.9%
- Mean Inhib (%) (kinases [27]): 1.6%
- Mean Inhib (%) (kinases [28]): −0.8%

— patent publication US20220187282A1, “CARDIOMYOCYTE PROLIFERATION” (The Council of the Queensland Institute of Medical Research, priority 2019, published 2022)
